Reference: patent publication US20240209334A1, “SMALL-MOLECULE-ACTIVATED GLYCAN MODIFYING ENZYMES AND USES THEREOF” (President and Fellows of Harvard College, priority 2022, published 2024)

Legend:
Assay type in all cases: cell-based, human
MCF7-C181_D174N = assay: Apoptosis, Annexin V/DAPI flow cytometry; conditions: 10 μM 4-HT for 24 hours
Description: (§1) In addition to serving as an activator for intein splicing, 4-HT is also known as the active metabolite of tamoxifen, an FDA-approved drug for treating breast cancer patients. Breast cancer cells also have elevated OGT expression (39) and decreased levels of OGA (40, 41), resulting in elevated O-GlcNAcylation in the proteome. OGT is usually required for tumor growth and metastasis (39), and low OGA expression is correlated with poor survival in breast cancer patients (FIG. 13). The ER positive breast cancer-derived MCF-7 cell line is sensitive to tamoxifen and 4-HT, resulting in suppression of cell proliferation, yet drug resistance occurs after long-term treatment (42). […] To determine if reduction of O-GlcNAc sensitized MCF-7 cells to 4-HT treatment, it was assessed whether 4-HT induced inhibition of breast cancer cell proliferation and OGA-intein activation worked synergistically to accelerate cell death (FIG. 5A). […] Next, these two cell lines were treated with 4-HT at increasing concentrations, and cell viability was measured after 48 hours. […] Given that 4-HT promoted MCF-7 cell death through apoptosis (43), the apoptosis of these cells under 4-HT treatment was further analyzed through flow cytometry analyses following Annexin V and DAPI staining. […]
(§2) Detection of cell apoptosis. […] Data was analyzed by FlowJo v10.

MCF7-C181 cells [1] = assay: Apoptosis, Annexin V/DAPI flow cytometry; conditions: 10 μM 4-HT for 24 hours
Description: as §1, §2

MCF7-C181_D174N cells = assay: Cell viability, CCK-8 assay; conditions: 48 hours
Description: as §1
(§3) Cell viability assay. Cell viability was assessed by CCK-8 assay. […]

MCF7-C181 cells [2] = assay: Cell viability, CCK-8 assay; conditions: 48 hours
Description: as §1, §3

regular MCF-7 cells = assay: Cell viability, CCK-8 assay; conditions: 48 hours
Description: as §1, §3

## CC/C(=C(\c1ccc(O)cc1)c1ccc(OCCN(C)C)cc1)c1ccccc1 [4-HT, 4-hydroxytamoxifen]
MCF7-C181_D174N
  apoptotic cells: 6.09%
MCF7-C181 cells [1]
  apoptotic cells: 6.84%
MCF7-C181_D174N cells
  4-HT concentration required for suppressing survival: > 5 µM
MCF7-C181 cells [2]
  4-HT concentration giving almost complete cell survival inhibition: 5 µM
Regular MCF-7 cells
  4-HT concentration required for suppressing survival: > 5 µM
